Source: paper PMC3959874 (European journal of dermatology : EJD, 2013)
Like-named read-outs stand apart in the source and are kept apart here.

Tests used:
[1] = system: murine macrophage cell line RAW 264.7; experiment: Cytokine induction; format: cell-based; settings: RAW 264.7 cells, graded doses overnight, ELISA (figure 1A)
Adenosine A2A = Adenosine A2A (Homo sapiens, UniProt P29274); experiment: Radioligand binding assay; settings: 10 μM; 25 °C, 90 min
Adrenergic a2A = Adrenergic a2A (Homo sapiens, UniProt P08913); experiment: Radioligand binding assay; settings: 10 μM; 25 °C, 60 min
[2] = system: Sodium Channel, Site 2 289593; experiment: Radioligand binding assay; parameters: species or system rat; settings: 10 μM; 37 °C, 60 min
CYP450, 3A4 = CYP450, 3A4 (Homo sapiens, UniProt P08684); experiment: Cytochrome P450 enzyme assay; format: in vitro ADME; settings: 10 μM; 37 °C, 30 min
Adrenergic a1D = Adrenergic a1D (Homo sapiens, UniProt P25100); experiment: Radioligand binding assay; settings: 10 μM; 25 °C, 60 min
[3] = target: Serotonin (5-Hydroxytryptam ine) 5-HT2B (Homo sapiens, UniProt P41595); experiment: Radioligand binding assay; settings: 10 μM; 37 °C, 60 min
[4] = target: Serotonin (5-Hydroxytryptam ine) 5-HT1A (Homo sapiens, UniProt P08908); experiment: Radioligand binding assay; settings: 10 μM; 25 °C, 60 min
[5] = system: Calcium Channel L-Type, Dihydropyridine; experiment: Radioligand binding assay; parameters: species or system rat; settings: 10 μM; 25 °C, 90 min
[6] = system: Glutamate, NMDA, Phencyclidine; experiment: Radioligand binding assay; parameters: species or system rat; settings: 10 μM; 25 °C, 45 min
Bradykinin B2 = Bradykinin B2 (Homo sapiens, UniProt P30411); experiment: Radioligand binding assay; settings: 10 μM; 25 °C, 60 min
[7] = format: in vivo, mice; settings: for Body weight change after a single intravenous injection of the MTD: 150 mg/kg TMX-202 or 15 mg/kg IMQ i.v. (figure 4)
Histamine H3 = Histamine H3 (Homo sapiens, UniProt Q9Y5N1); experiment: Radioligand binding assay; settings: 10 μM; 25 °C, 120 min
Sigma al = Sigma al (Homo sapiens, UniProt Q99720); experiment: Radioligand binding assay; settings: 10 μM; 37 °C, 240 min
Dopamine D4.2 = Dopamine D4.2 (Homo sapiens, UniProt P21917, DEL265-296); experiment: Radioligand binding assay; settings: 10 μM; 25 °C, 120 min
Adrenergic a1B = Adrenergic a1B (Rattus norvegicus, UniProt P15823); experiment: Radioligand binding assay; settings: 10 μM; 25 °C, 60 min
[8] = target: Serotonin (5-Hydroxytryptam ine) 5-HT3 (Homo sapiens, UniProt P46098); experiment: Radioligand binding assay; settings: 10 μM; 37 °C, 60 min
Potassium Channel [KATP] = experiment: Radioligand binding assay; parameters: species or system human; settings: 10 μM; 25 °C, 120 min
Neuropeptide Y Y2 = Neuropeptide Y Y2 (Homo sapiens, UniProt P49146); experiment: Radioligand binding assay; settings: 10 μM; 37 °C, 120 min
[9] = target: Nicotinic Acetylcholine a1, Bungarotoxin (Homo sapiens, UniProt P02708+P07510+Q07001); experiment: Radioligand binding assay; settings: 10 μM; 25 °C, 120 min
Melatonin MT1 = Melatonin MT1 (Homo sapiens, UniProt P48039); experiment: Radioligand binding assay; settings: 10 μM; 25 °C, 180 min
Glutamate, Kainate = experiment: Radioligand binding assay; parameters: species or system rat; settings: 10 μM; 4 °C, 60 min
Purinergic P2, = experiment: Radioligand binding assay; parameters: species or system rat; settings: 10 μM; 25 °C, 60 min
TLR7 = experiment: In vitro TLR7-dependent cytokine induction, overall potency comparison; format: cell-based
Opiate n (OP3, MOP) = Opiate n (OP3, MOP) (Homo sapiens, UniProt P35372); experiment: Radioligand binding assay; settings: 10 μM; 25 °C, 60 min
Opiate 51 (OP1, DOP) = Opiate 51 (OP1, DOP) (Homo sapiens, UniProt P41143); experiment: Radioligand binding assay; settings: 10 μM; 25 °C, 60 min
Adrenergic β1 = Adrenergic β1 (Homo sapiens, UniProt P08588); experiment: Radioligand binding assay; settings: 10 μM; 25 °C, 120 min
Muscarinic M3 = Muscarinic M3 (Homo sapiens, UniProt P20309); format: binding; settings: 10 μM; 25 °C, 120 min
Potassium Channel hERG = Potassium Channel hERG (Homo sapiens, UniProt Q12809); experiment: Radioligand binding assay; settings: 10 μM; 25 °C, 60 min
[10] = target: Platelet Activating Factor (PA F) (Homo sapiens, UniProt P25105); experiment: Radioligand binding assay; settings: 10 μM; 25 °C, 180 min
Adrenergic β2 = Adrenergic β2 (Homo sapiens, UniProt P07550); experiment: Radioligand binding assay; settings: 10 μM; 25 °C, 60 min
[11] = target: Leukotriene, Cysteinyl CysLT 1 (Homo sapiens, UniProt Q9Y271); experiment: Radioligand binding assay; settings: 10 μM; 25 °C, 30 min
Histamine H1 = Histamine H1 (Homo sapiens, UniProt P35367); format: binding; settings: 10 μM; 25 °C, 180 min
Nicotinic Acetylcholine = experiment: Radioligand binding assay; parameters: species or system human; settings: 10 μM; 25 °C, 60 min
Muscarinic M2 = Muscarinic M2 (Homo sapiens, UniProt P08172); experiment: Radioligand binding assay; settings: 10 μM; 25 °C, 120 min
Bradykinin B1 = Bradykinin B1 (Homo sapiens, UniProt P46663); experiment: Radioligand binding assay; settings: 10 μM; 25 °C, 60 min
Opiate K (OP2, KOP) = Opiate K (OP2, KOP) (Homo sapiens, UniProt P41145); experiment: Radioligand binding assay; settings: 10 μM; 25 °C, 60 min
Transporter, GABA = Transporter, GABA (Rattus norvegicus, UniProt P23978); experiment: Radioligand binding assay; settings: 10 μM; 25 °C, 20 min
Dopamine D1 = Dopamine D1 (Homo sapiens, UniProt P21728); experiment: Radioligand binding assay; settings: 10 μM; 37 °C, 120 min
Glucocorticoid = Glucocorticoid (Homo sapiens, UniProt P04150); experiment: Radioligand binding assay; settings: 10 μM; 25 °C, 120 min
[12] = target: Epidermal Growth Factor (EG F) (Homo sapiens, UniProt P00533); experiment: Radioligand binding assay; settings: 10 μM; 25 °C, 60 min
Chain of Epidermal Growth Factor (EG F) (P00533 25-1210): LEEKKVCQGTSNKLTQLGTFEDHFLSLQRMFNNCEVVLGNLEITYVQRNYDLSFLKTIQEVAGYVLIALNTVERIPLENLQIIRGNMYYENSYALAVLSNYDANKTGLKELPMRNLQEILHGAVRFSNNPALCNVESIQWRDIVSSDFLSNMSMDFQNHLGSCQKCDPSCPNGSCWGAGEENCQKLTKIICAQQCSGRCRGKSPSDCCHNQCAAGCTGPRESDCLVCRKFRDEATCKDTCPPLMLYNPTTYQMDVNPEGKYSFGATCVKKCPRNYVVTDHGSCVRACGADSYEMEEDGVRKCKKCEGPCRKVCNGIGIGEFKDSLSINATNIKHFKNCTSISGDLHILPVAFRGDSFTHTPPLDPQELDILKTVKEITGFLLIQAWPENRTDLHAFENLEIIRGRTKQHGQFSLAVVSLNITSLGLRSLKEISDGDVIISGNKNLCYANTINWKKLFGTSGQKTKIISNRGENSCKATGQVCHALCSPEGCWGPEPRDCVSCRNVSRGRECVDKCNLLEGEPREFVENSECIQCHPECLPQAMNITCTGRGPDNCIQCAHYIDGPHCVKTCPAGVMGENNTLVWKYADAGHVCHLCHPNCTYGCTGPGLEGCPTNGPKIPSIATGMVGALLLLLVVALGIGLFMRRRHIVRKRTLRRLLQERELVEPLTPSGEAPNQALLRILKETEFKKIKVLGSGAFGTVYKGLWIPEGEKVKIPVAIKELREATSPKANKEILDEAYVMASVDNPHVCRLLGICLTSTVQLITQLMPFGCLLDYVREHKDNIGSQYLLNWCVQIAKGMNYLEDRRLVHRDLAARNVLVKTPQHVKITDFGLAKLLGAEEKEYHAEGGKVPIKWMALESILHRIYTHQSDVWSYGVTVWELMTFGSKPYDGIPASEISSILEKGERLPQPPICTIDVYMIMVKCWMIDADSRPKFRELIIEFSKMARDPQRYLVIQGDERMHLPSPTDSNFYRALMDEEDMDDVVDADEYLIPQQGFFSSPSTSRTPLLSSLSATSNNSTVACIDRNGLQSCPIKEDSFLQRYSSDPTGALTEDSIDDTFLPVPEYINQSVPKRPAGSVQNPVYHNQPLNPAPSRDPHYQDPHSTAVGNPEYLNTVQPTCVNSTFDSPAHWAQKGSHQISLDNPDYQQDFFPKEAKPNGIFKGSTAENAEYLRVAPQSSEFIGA

Chain of Histamine H3 (Q9Y5N1 whole entry): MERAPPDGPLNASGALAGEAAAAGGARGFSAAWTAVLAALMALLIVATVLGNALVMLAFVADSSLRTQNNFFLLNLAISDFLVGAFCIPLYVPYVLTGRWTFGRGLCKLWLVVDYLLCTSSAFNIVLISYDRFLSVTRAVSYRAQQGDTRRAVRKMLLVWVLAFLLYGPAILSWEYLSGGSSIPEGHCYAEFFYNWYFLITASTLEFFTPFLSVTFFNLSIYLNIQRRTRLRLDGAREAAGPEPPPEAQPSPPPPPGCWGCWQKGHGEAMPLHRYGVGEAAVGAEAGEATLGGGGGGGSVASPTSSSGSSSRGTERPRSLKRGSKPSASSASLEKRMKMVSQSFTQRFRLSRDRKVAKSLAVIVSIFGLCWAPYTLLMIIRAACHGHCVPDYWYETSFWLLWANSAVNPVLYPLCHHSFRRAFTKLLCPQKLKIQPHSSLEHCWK
Chain of Glucocorticoid (P04150 whole entry): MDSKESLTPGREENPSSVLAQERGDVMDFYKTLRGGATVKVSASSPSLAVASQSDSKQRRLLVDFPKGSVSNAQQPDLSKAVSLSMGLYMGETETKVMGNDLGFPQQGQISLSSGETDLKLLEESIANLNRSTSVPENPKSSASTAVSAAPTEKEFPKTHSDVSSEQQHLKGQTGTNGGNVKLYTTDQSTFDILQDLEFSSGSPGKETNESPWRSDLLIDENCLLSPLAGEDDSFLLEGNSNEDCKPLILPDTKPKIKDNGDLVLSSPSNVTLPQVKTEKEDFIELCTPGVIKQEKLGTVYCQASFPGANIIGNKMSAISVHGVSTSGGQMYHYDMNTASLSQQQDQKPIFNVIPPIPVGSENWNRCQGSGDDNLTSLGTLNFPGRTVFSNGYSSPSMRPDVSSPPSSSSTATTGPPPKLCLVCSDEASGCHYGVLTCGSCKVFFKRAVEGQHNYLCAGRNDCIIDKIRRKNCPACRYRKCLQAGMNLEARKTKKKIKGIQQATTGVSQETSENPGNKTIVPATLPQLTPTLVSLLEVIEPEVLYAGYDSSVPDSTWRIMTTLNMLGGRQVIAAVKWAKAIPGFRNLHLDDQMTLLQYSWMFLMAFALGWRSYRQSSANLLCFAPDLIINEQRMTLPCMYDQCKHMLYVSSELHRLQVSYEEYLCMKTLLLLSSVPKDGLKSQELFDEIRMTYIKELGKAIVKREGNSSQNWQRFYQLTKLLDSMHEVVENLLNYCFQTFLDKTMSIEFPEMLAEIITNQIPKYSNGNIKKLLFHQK
Chain of Dopamine D1 (P21728 whole entry): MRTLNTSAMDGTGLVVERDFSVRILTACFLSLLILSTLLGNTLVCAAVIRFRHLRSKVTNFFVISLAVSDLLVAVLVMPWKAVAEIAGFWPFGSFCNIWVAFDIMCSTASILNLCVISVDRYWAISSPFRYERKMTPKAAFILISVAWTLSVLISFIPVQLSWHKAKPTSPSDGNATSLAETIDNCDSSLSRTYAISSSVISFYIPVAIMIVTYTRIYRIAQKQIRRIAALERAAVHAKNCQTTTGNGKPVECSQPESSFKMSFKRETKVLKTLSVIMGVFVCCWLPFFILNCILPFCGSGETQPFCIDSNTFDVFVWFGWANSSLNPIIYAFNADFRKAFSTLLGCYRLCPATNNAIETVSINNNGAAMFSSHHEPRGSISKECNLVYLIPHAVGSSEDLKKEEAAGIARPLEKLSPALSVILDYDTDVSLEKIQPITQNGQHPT
Chain of Neuropeptide Y Y2 (P49146 whole entry): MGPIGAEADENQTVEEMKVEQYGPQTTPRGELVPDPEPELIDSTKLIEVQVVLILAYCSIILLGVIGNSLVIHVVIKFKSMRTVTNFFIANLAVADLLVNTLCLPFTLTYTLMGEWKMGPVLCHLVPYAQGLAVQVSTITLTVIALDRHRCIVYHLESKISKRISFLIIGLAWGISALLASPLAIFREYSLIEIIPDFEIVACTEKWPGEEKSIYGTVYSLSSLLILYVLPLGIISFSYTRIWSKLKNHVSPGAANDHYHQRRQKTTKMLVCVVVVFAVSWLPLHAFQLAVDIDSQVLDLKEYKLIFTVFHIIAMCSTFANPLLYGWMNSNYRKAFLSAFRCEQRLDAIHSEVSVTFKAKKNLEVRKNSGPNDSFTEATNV
Chain of Adenosine A2A (P29274 whole entry): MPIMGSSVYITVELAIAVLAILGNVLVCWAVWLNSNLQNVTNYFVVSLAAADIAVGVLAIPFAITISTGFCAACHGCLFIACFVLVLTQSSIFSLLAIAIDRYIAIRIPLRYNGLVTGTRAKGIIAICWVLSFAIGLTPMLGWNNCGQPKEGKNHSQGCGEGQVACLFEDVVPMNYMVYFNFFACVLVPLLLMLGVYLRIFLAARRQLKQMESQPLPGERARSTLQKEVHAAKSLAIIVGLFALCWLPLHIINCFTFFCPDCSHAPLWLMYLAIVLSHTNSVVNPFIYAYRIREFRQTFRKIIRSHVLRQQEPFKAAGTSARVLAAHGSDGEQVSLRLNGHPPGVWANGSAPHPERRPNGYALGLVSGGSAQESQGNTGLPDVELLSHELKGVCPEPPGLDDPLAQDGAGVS
Chain of Platelet Activating Factor (PA F) (P25105 whole entry): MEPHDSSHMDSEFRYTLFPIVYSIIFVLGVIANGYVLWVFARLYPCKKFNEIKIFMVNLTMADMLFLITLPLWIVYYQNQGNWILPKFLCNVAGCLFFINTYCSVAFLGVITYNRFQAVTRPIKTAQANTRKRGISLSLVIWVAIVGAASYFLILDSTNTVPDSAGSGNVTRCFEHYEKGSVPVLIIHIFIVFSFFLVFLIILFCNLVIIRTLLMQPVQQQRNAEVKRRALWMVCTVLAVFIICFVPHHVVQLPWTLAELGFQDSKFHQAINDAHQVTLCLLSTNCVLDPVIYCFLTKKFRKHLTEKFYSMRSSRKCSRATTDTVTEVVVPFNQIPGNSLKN
Chain of Adrenergic a1B (P15823 whole entry): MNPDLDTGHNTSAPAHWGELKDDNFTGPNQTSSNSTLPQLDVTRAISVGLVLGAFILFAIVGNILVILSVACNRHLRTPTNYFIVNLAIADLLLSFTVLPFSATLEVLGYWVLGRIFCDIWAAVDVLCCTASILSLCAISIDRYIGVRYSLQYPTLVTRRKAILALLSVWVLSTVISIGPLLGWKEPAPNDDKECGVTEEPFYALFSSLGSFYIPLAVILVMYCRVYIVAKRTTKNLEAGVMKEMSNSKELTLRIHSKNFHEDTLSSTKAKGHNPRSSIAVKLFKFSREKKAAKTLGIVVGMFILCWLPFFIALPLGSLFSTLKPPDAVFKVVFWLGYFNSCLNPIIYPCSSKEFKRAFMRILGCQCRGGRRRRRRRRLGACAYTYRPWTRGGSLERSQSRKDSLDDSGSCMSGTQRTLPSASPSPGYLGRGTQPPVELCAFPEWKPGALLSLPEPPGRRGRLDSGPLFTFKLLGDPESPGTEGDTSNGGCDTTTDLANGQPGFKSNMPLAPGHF
Chain of Serotonin (5-Hydroxytryptam ine) 5-HT1A (P08908 whole entry): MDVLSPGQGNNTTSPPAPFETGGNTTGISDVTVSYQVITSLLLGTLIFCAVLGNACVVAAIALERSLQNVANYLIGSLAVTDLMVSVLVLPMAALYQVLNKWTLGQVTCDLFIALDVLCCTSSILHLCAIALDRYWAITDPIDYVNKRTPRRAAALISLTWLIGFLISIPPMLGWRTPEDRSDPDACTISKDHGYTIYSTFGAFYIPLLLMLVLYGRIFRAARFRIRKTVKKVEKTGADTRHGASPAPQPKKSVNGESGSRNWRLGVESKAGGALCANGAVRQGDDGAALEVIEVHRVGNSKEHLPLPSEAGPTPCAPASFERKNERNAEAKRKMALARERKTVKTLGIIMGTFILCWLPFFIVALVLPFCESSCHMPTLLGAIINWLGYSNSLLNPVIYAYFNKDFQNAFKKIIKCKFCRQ

In the case of `CCCCCCCCCCCC(=O)OC[C@@H](COP(=O)(O)OCCNC(=O)c1ccc(Cn2c(=O)[nH]c3c(N)nc(OCCOC)nc32)cc1)OC(=O)CCCCCCCCCCC` [TMX-202], the “Potency of mTNFα induction compared with IMQ” value [1] is reported as “more potent cytokine inducer”, the “Percent inhibition of specific radioligand binding” value (Adenosine A2A) is reported as −8% and the “Percent inhibition of specific radioligand binding” value (Adrenergic a2A) is reported as 3%. The “Percent inhibition of specific radioligand binding” value [2] was 15%, the “Percent inhibition of enzyme activity” value (CYP450, 3A4) was −1% and the “Percent inhibition of specific radioligand binding” value (Adrenergic a1D) was 6%. For the same molecule, the “Percent inhibition of specific radioligand binding” value [3] was 1%, the “Percent inhibition of specific radioligand binding” value [4] was −7% and the “Percent inhibition of specific radioligand binding” value [5] was 10%. The “Percent inhibition of specific radioligand binding” value [6] was 2%, the “Percent inhibition of specific radioligand binding” value (Bradykinin B2) was −2% and the “MTD (molar)” value ([7]; C57BL/6 mice, intravenous administration) was “approximately 163 μmoles/kg”. For the same molecule, the “Body weight change after a single intravenous injection of the MTD” value ([7]; Tlr7−/− or Myd88−/− mice) was “no significant body weight loss”, the “Body weight change after a single intravenous injection of the MTD” value ([7]; WT mice) was “significant reduction in body weight” and the “Percent inhibition of specific radioligand binding” value (Histamine H3) was −14%. For the same molecule, the “Percent inhibition of specific radioligand binding” value (Sigma al) was −5%, the “Percent inhibition of specific radioligand binding” value (Dopamine D4.2) was 14% and the “Percent inhibition of specific radioligand binding” value (Adrenergic a1B) was 0%. The “Percent inhibition of specific radioligand binding” value [8] was 3%, the “Percent inhibition of specific radioligand binding” value (Potassium Channel [KATP]) was 8% and the “Percent inhibition of specific radioligand binding” value (Neuropeptide Y Y2) was 4%. The “Percent inhibition of specific radioligand binding” value [9] was −3%, the “Percent inhibition of specific radioligand binding” value (Melatonin MT1) was 3% and the “Percent inhibition of specific radioligand binding” value (Glutamate, Kainate) was 1%. The “Percent inhibition of specific radioligand binding” value (Purinergic P2,) was 8%, the “Potency relative to IMQ in causing TLR7-dependent cytokine induction” value (TLR7) was 100 times and the “Percent inhibition of specific radioligand binding” value (Opiate n (OP3, MOP)) was 42%. For the same molecule, the “Percent inhibition of specific radioligand binding” value (Opiate 51 (OP1, DOP)) was 5%, the “Percent inhibition of specific radioligand binding” value (Adrenergic β1) was 18% and the “Percent inhibition of specific radioligand binding” value (Muscarinic M3) was −6%. For the same molecule, the “Percent inhibition of specific radioligand binding” value (Potassium Channel hERG) was −4%, the “Percent inhibition of specific radioligand binding” value [10] was 33% and the “Percent inhibition of specific radioligand binding” value (Adrenergic β2) was 3%. The “Percent inhibition of specific radioligand binding” value [11] was 10%, the “Percent inhibition of specific radioligand binding” value (Histamine H1) was −6% and the “Percent inhibition of specific radioligand binding” value (Nicotinic Acetylcholine) was 9%. The “Percent inhibition of specific radioligand binding” value (Muscarinic M2) was 0%, the “Percent inhibition of specific radioligand binding” value (Bradykinin B1) was 3% and the “Percent inhibition of specific radioligand binding” value (Opiate K (OP2, KOP)) was −9%. For the same molecule, the “Percent inhibition of specific radioligand binding” value (Transporter, GABA) was 1%, the “Percent inhibition of specific radioligand binding” value (Dopamine D1) was 15% and the “Percent inhibition of specific radioligand binding” value (Glucocorticoid) was −1%. For the same molecule, the “Percent inhibition of specific radioligand binding” value [12] was 6%.
